{"source": "paper PMC6938345", "about": "“Inhibition of complement activation, myeloperoxidase, NET formation and oxidant activity by PIC1 peptide variants” (PLoS ONE, 2019)", "key": {"[1]": {"target": "T1, Myeloperoxidase (MPO) (Homo sapiens, UniProt P05164)", "T1 construct": "purchased Lee BioSolutions (Maryland Heights, MO)", "T1 sequence (P05164 49-745)": "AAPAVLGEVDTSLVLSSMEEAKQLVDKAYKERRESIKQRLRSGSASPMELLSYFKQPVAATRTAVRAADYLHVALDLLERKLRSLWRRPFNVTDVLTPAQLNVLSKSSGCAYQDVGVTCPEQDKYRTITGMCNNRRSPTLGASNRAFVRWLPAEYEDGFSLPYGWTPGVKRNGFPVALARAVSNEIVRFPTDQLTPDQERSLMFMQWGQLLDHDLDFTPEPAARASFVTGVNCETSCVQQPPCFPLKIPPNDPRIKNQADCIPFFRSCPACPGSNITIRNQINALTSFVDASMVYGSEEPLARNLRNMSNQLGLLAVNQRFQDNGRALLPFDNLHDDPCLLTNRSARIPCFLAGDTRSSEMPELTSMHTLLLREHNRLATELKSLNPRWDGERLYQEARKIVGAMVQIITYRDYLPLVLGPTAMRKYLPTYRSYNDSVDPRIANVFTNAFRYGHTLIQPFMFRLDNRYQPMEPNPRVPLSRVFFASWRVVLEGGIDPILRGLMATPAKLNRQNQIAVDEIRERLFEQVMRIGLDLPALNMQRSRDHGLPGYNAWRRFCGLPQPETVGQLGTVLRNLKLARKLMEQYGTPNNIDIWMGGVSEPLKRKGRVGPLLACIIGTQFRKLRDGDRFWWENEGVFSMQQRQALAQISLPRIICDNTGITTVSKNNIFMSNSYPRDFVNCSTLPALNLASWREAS", "experiment": "MPO activity assay (TMB-based)", "assay_type": "biochemical", "conditions": "range of concentrations", "experimental": "PIC1 and sarcosine variants were diluted to 25 mg/ml and then serially titrated in a 96 well plate at a volume of 0.02 ml. Myeloperoxidase (MPO) was diluted to 20 μg/ml and 0.02 ml was added to the titrated peptides. TMB (3,3′,5,5′-tetramethylbenzidine) (0.1 ml) was added to each well for 2 minutes, followed by 0.1 ml of 2.5 N H2SO4 for another 2 minutes, and then read on a 96 well plate reader (BioTek) at 450 nm.\nIn this assay, the variants were tested for MPO inhibition over a range of concentrations (Fig 2A). Strong MPO inhibition was found for all variants with the exception of the no-cysteine variant (C9,10)."}, "[2]": {"experiment": "Peptide solubility in water", "experimental": "(PA) (Table 1) were synthesized by New England Peptide (Gardner, MA) to >90% purity. Sarcosine variants and PEG were dissolved in water and the pH was adjusted with NaOH. PA was dissolved in DMSO and then brought up to the final concentration with water resulting in 30% DMSO and pH adjusted. Antibody sensitized sheep erythrocytes (EA), purified C1q and factor B-depleted human sera were purchased from Complement Technology (Tyler, TX). Purified myeloperoxidase was purchased from Lee BioSolutions (Maryland Heights, MO) and tetramethylbenzidine (TMB) and PicoGreen were purchased from Thermo Fisher (Waltham MA).\n(PA), peptide derivatives were synthesized with sarcosine residues substituted at all 15 positions, included a peptide in which the vicinal cysteines at positions 9 and 10 (C9,C10) were replaced with a single sarcosine residue (Table 1)."}, "[3]": {"target": "T2, MPO heme ring (Homo sapiens, UniProt P05164)", "T2 construct": "purchased Lee BioSolutions (Maryland Heights, MO)", "T2 sequence (P05164 49-745)": "T1 sequence (P05164 49-745)", "experiment": "MPO heme ring oxidative degradation", "assay_type": "biochemical", "conditions": "peptides 3.0 mM, H2O2, absorbance 300-550 nm", "experimental": "In a 96 well plate, 0.025 ml of 1.7 mg/ml MPO was combined with 0.00125 ml of 0.5% H2O2 and 3 mM PIC1 or sarcosine variant peptides in a total volume of 0.125 ml PBS and left to incubate at room temperature for 2 minutes. Using a 96 well plate reader, the wells were scanned for absorbance from 300–550 nm to generate curves reflecting the iron state in the MPO heme ring, as previously reported.\nWe then evaluated the ability of the variants to prevent degradation of the heme ring in the MPO molecule. […] This can be evaluated via spectrometric measurements of absorption of wavelengths from 300–550 nm. Absorption measurements were made over this spectrum for all variants (Fig 3A–3H). […] The heme ring preservation for these two variants was greater than that for the parent compound, PA-dPEG24.\nFig 3 Sarcosine variant protection of MPO heme ring from oxidative degradation. Absorbance spectra for the heme ring is shown in the absence of hydrogen peroxide (MPO) in red, in the presence of hydrogen peroxide (MPO+H2O2) in black, in the presence of peptide in blue, and in the presence of hydrogen peroxide and peptide together in green. […] B-H) Peptides A2 – C9,10 are denoted in the legends. Peptides were tested at a concentration of 3.0 mM."}, "[4]": {"experiment": "Total Antioxidant Capacity (TAC) assay", "experimental": "The TAC (Total Antioxidant Capacity) Assay (Cell Biolabs, Inc, San Diego, CA) was used to measure the antioxidant capacity of the sarcosine variants based on the reduction of copper (II) to copper (I). The kit protocol was performed as recommended.\nAntioxidant activity is measured in copper reducing equivalents (CRE). Peptides were tested over a range of concentrations from 0.03–0.25 mM then compared to the standard. Data are the means of n = 3 independent experiments + SEM."}, "[5]": {"target": "T3, C1q (Homo sapiens, UniProt P02745+P02746+P02747)", "T3 construct": "purchased Complement Technology (Tyler, TX)", "T3 sequence (P02745 23-245)": "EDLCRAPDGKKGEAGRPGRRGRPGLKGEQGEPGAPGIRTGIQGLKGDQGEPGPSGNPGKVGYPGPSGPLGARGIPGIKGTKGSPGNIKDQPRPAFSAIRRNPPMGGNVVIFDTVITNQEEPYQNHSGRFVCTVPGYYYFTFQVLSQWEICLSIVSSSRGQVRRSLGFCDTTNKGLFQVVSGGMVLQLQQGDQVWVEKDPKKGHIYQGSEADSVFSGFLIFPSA", "T3 sequence (P02746 28-253)": "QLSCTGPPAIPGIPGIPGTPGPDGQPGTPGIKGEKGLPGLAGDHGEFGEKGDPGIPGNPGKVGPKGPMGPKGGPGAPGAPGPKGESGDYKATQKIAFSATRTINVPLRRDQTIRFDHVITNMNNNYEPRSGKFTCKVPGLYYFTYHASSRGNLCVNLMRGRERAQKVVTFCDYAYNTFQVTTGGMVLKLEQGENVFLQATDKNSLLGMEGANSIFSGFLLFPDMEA", "T3 sequence (P02747 29-245)": "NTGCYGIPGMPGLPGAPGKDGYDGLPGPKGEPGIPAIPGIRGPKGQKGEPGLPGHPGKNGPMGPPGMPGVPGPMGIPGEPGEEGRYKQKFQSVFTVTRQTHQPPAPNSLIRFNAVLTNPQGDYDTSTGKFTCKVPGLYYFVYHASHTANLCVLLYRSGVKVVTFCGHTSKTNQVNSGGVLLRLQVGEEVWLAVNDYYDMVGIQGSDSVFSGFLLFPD", "experiment": "C1q binding ELISA-type assay", "conditions": "C1q as capture substrate", "experimental": "An Immunlon-2 HB ELISA plate was coated with 1 μg/ml C1q or MPO in bicarbonate buffer overnight at 4 °C. The plates were washed with PBST (phosphate buffered saline + 0.1% Tween) and then blocked with 1% gelatin/PBS for 2 hours at room temperature. After washing, the plates were incubated with PA or sarcosine variant peptides starting at 2.5 mg/ml and then serially diluted in 1% gelatin/PBS for 1 hour at room temperature. After washing, the plates were probed with rabbit anti-PA (developed with Cocalico Biologicals, Reamstown, PA) at 1:1000 in 1% gelatin/PBS for 1 hour, room temperature, followed by a goat anti-rabbit HRP (Sigma Aldrich, St Louis, MO) at 1:1,000 in 1% gelatin/PBS for 1 hour at room temperature with a washing step in between. Wells were developed using TMB substrate solution, stopped using 1 N H2SO4, and read at 450 nm in a plate reader.\nWe then tested peptide variant binding to C1q in an ELISA-type assay in which the C1q is used as the capture substrate. Binding curves for each peptide is shown in Fig 1C, from which half-maximal binding concentrations were calculated (Fig 1D). […] Higher concentrations of DMSO interfere with the detecting reagents resulting in a partial binding curve."}}, "note": "Entries after “also recorded” stand apart in the source; their conditions may differ.", "data": [{"smiles": "CC[C@H](C)[C@H](N)C(=O)N[C@@H](C)C(=O)N[C@@H](CC(C)C)C(=O)N[C@H](C(=O)N[C@@H](CC(C)C)C(=O)N[C@@H](CCC(=O)O)C(=O)N1CCC[C@H]1C(=O)N(C)CC(=O)N[C@@H](CS)C(=O)N[C@@H](CS)C(=O)N[C@@H](CCC(N)=O)C(=O)N[C@@H](CCC(=O)O)C(=O)N[C@@H](CCCNC(=N)N)C(=O)N[C@@H](C)C(=O)N[C@@H](C)C(=O)O)[C@@H](C)CC", "note": "[I8]", "values": [{"measurement": "MPO inhibition (in words)", "setting": "[1]", "value": "greatest potency"}, {"measurement": "solubility in water (in words)", "setting": "[2]", "value": "soluble in water"}, {"measurement": "protection of MPO heme ring from degradation (in words)", "setting": "[3]", "value": "near perfect preservation"}, {"measurement": "TAC assay, antioxidant activity", "setting": "[4]; Avg of n = 3", "value": "1239.37 copper reducing equivalents (CRE)"}, {"measurement": "antioxidant capacity (in words)", "setting": "[4]; TAC assay", "value": "approaching that of PA-dPEG24"}, {"measurement": "binding to C1q (in words)", "setting": "[5]", "value": "superior binding to C1q; also recorded: slightly superior to that of PA-dPEG24"}]}]}
